Measured values as given in patent publication US10428060B2, “PI-kinase inhibitors with anti-infective activity” (The Board of Trustees of the Leland Stanford Junior …, priority 2011, dated 2019).

Columns and labels:
[1] = tested on: HCV genotype 2a; assay: microbe, parasite or virus in culture; format: cell-based; settings: Hepatitis C virus, Huh7.5, read-out: HCV2a EC50
[2] = tested on: HRV; assay: Rhinovirus antiviral assay; format: cell-based; settings: Human rhinovirus sp.
[3] = target: T1, PI3K p110g (Homo sapiens, UniProt P48736); assay: PI3K p110g kinase assay; format: biochemical
T1 construct: purchased Millipore
T1 sequence (P48736 whole entry): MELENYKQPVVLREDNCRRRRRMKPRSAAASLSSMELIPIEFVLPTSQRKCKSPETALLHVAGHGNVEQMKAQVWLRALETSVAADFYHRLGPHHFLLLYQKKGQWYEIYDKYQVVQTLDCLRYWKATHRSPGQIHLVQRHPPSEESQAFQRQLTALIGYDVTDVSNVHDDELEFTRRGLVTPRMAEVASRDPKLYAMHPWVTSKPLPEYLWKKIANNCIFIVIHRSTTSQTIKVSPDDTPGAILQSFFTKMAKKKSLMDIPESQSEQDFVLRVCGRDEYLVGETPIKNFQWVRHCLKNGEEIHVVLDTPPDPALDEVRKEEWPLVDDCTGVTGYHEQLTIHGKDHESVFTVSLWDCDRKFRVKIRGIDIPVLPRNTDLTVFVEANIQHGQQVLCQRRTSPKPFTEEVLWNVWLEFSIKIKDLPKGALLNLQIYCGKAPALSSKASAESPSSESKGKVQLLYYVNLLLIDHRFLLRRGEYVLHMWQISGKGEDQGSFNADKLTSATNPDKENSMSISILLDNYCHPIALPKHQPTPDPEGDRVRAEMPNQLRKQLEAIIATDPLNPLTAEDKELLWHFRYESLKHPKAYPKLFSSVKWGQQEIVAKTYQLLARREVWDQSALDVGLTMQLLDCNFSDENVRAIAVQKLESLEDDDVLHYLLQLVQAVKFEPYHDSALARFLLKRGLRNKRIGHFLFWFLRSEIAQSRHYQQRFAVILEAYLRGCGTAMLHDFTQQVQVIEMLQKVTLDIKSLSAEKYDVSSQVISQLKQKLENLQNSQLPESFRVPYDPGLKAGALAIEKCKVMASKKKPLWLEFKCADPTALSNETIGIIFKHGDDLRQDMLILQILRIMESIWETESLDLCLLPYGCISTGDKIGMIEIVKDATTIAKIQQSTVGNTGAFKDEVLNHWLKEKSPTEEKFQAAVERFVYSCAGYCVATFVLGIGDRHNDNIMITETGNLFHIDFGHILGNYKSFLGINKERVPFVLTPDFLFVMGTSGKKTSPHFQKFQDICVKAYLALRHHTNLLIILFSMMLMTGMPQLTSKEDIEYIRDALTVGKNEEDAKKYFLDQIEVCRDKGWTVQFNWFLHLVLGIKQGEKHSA
Method: (§1) In the assays described here, p110α-p85 complex and p110γ were acquired from Millipore. Assays were performed with Lα-phosphatidylinositol (Avanti) as described in Knight et al. Nat Protoc. 2007; 2 (10):2459-66. Inhibitor series were prepared 10% DMSO as 5× stocks for the assay. Assays of HsVps34 were performed as described in Knight et al, except that the final assay buffer composition used was changed to 20 mM HEPES 7.5, 100 mM NaCl, 3 mM MgCl, 1 mg/mL PI and 44 nM hvps34 was used in the assay. […] COS-7 cells were cultured in 10 cm dishes and transfected at 70% confluence with 10 μg of plasmid DNA (HA-tagged bovine PI4KIIIβ, HA-tagged human PI4KIIIα) using Lipofectamine 2000 and 5 ml Opti-MEM following the manufacturer's instructions. After 5 hours the transfection medium was replaced with 10 ml complete DMEM. 36 hrs post transfection, cells were washed once with 5 ml PBS (pH 7.4) and lysed in 1 ml of lysis buffer (1) on ice. Lysates were collected by scraping and after 15 min they were centrifuged at 13,000 rpm for 10 min. To the lysates was added 200 μl of protein G Sepharose 4 fast flow beads that were prewashed with PBS and lysis buffer and 2 μg of anti-HA antibody. The tubes were then incubated overnight at 4 degrees C. in a tube rotator. The Sepharose beads in the lysate were washed twice with 150 mM NaCl in RIPA buffer, twice with RIPA buffer and once with kinase buffer (50 mM Tris/HCl, pH 7.5, 20 mM MgCl2, 1 mM EGTA, 1 mM PtdIns, 0.4% Triton X-100, 0.5 mg/mL BSA) and finally the beads were resuspended in 200 μL kinase buffer. Kinase reactions were run in a mixture of 45 μL of PI buffer (1 mM PI in kinase buffer), 10 μL of immunoprecipitated beads, 2 µL of inhibitors (dissolved and diluted in DMSO) or DMSO and 5 μL of [γ-^32P]-ATP (1 mM and 2 μCi/tube). The immunoprecipitates in PI buffer were pre-incubated with the drugs for 20 min prior the initiation of kinase reaction by adding ATP and the reactions were carried out for 30 min in 15 ml polypropolyne tubes. Reactions were terminated by addition of 3 ml of CHCl3:CH3OH:HCl (200:100:0.75) followed by 0.6 ml of 0.6N HCl to induce phase separation. The mixtures were vortexed, centrifuged at 2000 rpm for 2 min and the upper phase was discarded. To the lower phase was added 1.5 ml of CHCl3:CH3OH:0.6N HCl (3:48:47) and the mixture vortexed and centrifuged at 2000 rpm for 2 min. The lower phase was then transferred to counting vials and evaporated. Samples were counted in a scintillation beta counter after adding 5 ml of Instafluor (Perkin-Elmer).
PI-kinase assay: Compounds are tested in C.1.1. PI kinase assays as described by Shokat et al., “A membrane capture assay for lipid kinase activity.” Nat. Protoc. 2007; 2(10):2459-66.

[4] = target: T2, PI4KIIIB (Bos taurus, UniProt O02810); assay: PI4KIIIB kinase assay; format: biochemical, bovine
T2 construct: made in house; host or cells: COS-7 cells, transient transfection, anti-HA immunoprecipitate on protein G Sepharose beads
T2 sequence (O02810 whole entry): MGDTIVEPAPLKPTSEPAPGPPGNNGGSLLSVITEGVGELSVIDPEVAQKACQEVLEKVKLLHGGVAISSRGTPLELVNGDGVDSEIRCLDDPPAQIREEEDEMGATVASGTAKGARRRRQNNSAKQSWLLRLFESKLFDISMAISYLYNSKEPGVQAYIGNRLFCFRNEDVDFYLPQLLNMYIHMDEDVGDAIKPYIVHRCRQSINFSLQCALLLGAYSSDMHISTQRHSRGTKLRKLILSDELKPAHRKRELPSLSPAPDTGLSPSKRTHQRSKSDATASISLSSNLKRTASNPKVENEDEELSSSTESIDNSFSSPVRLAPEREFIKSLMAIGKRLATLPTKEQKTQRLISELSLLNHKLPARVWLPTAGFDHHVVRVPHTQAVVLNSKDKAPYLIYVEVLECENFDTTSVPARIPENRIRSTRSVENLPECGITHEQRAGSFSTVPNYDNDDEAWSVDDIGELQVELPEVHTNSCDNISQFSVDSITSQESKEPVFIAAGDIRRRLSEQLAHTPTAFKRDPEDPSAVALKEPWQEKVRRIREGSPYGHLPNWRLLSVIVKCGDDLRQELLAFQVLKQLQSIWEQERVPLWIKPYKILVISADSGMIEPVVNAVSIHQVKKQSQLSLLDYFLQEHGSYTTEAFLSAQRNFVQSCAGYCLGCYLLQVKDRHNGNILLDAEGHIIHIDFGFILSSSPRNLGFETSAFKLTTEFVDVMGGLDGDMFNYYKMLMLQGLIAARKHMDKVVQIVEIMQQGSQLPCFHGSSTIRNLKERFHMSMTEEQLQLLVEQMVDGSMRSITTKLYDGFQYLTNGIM
Method: as §1, with “2007; 2 (10):2459-66.” left out, “for” for “for the assay. Assays of HsVps34 were performed as described in Knight et al, except that the final assay buffer composition used was changed to 20 mM HEPES 7.5, 100 mM NaCl, 3 mM MgCl, 1 mg/mL PI and 44 nM hvps34 was used in”, “Lysates were collected by scraping and after 15 min they were centrifuged at 13,000 rpm for 10 min.” left out, “The Sepharose beads in the lysate were washed twice with 150 mM NaCl in RIPA buffer, twice with RIPA buffer and once with kinase buffer (50 mM Tris/HCl, pH 7.5, 20 mM MgCl2, 1 mM EGTA, 1 mM PtdIns, 0.4% Triton X-100, 0.5 mg/mL BSA) and finally the beads were resuspended in 200 μL kinase buffer.” left out
PI-kinase assay: Compounds are tested in C.1.1. PI kinase assays as described by Shokat et al., “A membrane capture assay for lipid kinase activity.” Nat. Protoc.

For COc1ccc(NS(=O)(=O)c2cc(-c3sc(NC4CCCCC4)nc3C)ccc2OC)c(C)c1 [Compound S-66, 5-[2-(cyclohexylamino)-4-methyl-thiazol-5-yl]-2-methoxy-N-(4-methoxy-2-methyl-phenyl)benzenesulfonamide; 2,2,2-trifluoroacetic acid], the EC50 [1] was 1000 to 10000 nM and the EC50 [2] was < 1 nM.

For COc1ccc(NS(=O)(=O)c2cc(-c3sc(NC(=O)CC4CCCCC4)nc3C)ccc2OC)c(C)c1 [Compound S-85, 2-cyclohexyl-N-[5-[4-methoxy-3-[(4-methoxy-2-methyl-phenyl)sulfamoyl]phenyl]-4-methyl-thiazol-2-yl]acetamide], the EC50 [2] was < 1 nM.

For COc1ccc(NS(=O)(=O)c2cc(-c3sc(NC4CCCCCC4)nc3C)ccc2OC)c(C)c1 [Compound S-89, 5-[2-(cycloheptylamino)-4-methyl-thiazol-5-yl]-2-methoxy-N-(4-methoxy-2-methyl-phenyl)benzenesulfonamide; 2,2,2-trifluoroactic acid], the EC50 [2] was < 1 nM.

With COc1ccc(-c2sc(NC(=O)CC3CCCC3)nc2C)cc1S(=O)(=O)Nc1ccc(C)nc1 [Compound S-100, 2-cyclopentyl-N-[5-[4-methoxy-3-[(6-methyl-3-pyridyl)sulfamoyl]phenyl]-4-methyl-thiazol-2-yl]acetamide; 2,2,2-trifluoroacetic acid] the IC50 [3] was > 10000 nM.

With COc1ccc(-c2sc(NC3CCCCC3)nc2C)cc1S(=O)(=O)Nc1ccc(O)cc1C [Compound S-106, 5-[2-(cyclohexylamino)-4-methyl-thiazol-5-yl]-N-(4-hydroxy-2-methyl-phenyl)-2-methoxy-benzenesulfonamide] the EC50 [2] was < 1 nM.

With COc1ccc(-c2sc(NCC3CCCCC3)nc2C)cc1S(=O)(=O)NC1CC1 [Compound S-127, 5-[2-(cyclohexylmethylamino)-4-methyl-thiazol-5-yl]-N-cyclopropyl-2-methoxy-benzenesulfonamide] the IC50 [3] was > 10000 nM.

For COc1ccc(-c2sc(NCC3CCCCC3)nc2C)cc1S(=O)(=O)NCC1CCCCC1 [Compound S-128, N-(cyclohexylmethyl)-5-[2-(cyclohexylmethylamino)-4-methyl-thiazol-5-yl]-2-methoxy-benzenesulfonamide], the IC50 [3] was > 10000 nM.

COc1ccc(-c2sc(NC3CCCCC3)nc2C)cc1S(=O)(=O)NC1CCCC1 [Compound S-129, 5-[2-(cyclohexylamino)-4-methyl-thiazol-5-yl]-N-cyclopentyl-2-methoxy-benzenesulfonamide] was tested, and the IC50 [3] was > 10000 nM.

COc1ccc(-c2sc(N[C@H](C)CC3CCCCC3)nc2C)cc1S(=O)(=O)NC1CCNCC1 [Compound S-145, 5-[2-[[(1R)-2-cyclohexyl-1-methyl-ethyl]amino]-4-methyl-thiazol-5-yl]-2-methoxy-N-(4-piperidyl)benzenesulfonamide] was tested, and the IC50 [3] was > 10000 nM.

COc1ccc(-c2sc(N[C@H](C)C3CCCCC3)nc2C)cc1S(=O)(=O)NC1CCNCC1 [Compound S-147, 5-[2-[[(1R)-1-cyclohexylethyl]amino]-4-methyl-thiazol-5-yl]-2-methoxy-N-(4-piperidyl)benzenesulfonamide] was tested, and the IC50 [3] was > 10000 nM.

For COc1ccc(-c2sc(NC(=O)CCC3CCCC3)nc2C)cc1S(=O)(=O)NC1CCC(O)CC1 (centres unmarked) [Compound S-156, 3-cyclopentyl-N-[5-[3-[(4-hydroxycyclohexyl)sulfamoyl]-4-methoxy-phenyl]-4-methyl-thiazol-2-yl]propanamide], the IC50 [4] was < 100 nM.

With COc1ccc(-c2sc(NC(=O)CC3CCOCC3)nc2C)cc1S(=O)(=O)Nc1cc(C)cc(O)c1 [Compound S-169, N-[5-[3-[(3-hydroxy-5-methyl-phenyl)sulfamoyl]-4-methoxy-phenyl]-4-methyl-thiazol-2-yl]-2-tetrahydropyran-4-yl-acetamide] the IC50 [3] was > 10000 nM.

For COc1ccc(-c2sc(NC(=O)CC3CCOCC3)nc2C)cc1S(=O)(=O)Nc1ccc(F)cc1 [Compound S-170, N-[5-[3-[(4-fluorophenyl)sulfamoyl]-4-methoxy-phenyl]-4-methyl-thiazol-2-yl]-2-tetrahydropyran-4-yl-acetamide], the IC50 [3] was > 10000 nM.

COc1ccc(-c2sc(NC(=O)CC3CCCC3)nc2C)cc1S(=O)(=O)NC1CCCNC1 (centres unmarked) [Compound S-173, 2-cyclopentyl-N-[5-[4-methoxy-3-(3-piperidylsulfamoyl)phenyl]-4-methyl-thiazol-2-yl]acetamide; 2,2,2-trifluoroacetic acid] was tested, and the IC50 [4] was < 100 nM.

For Cc1ccc(-c2sc(NC(=O)CC3CCCC3)nc2C)cc1S(=O)(=O)NC1CCCNC1 (centres unmarked) [Compound S-189, 2-cyclopentyl-N-[4-methyl-5-[4-methyl-3-(3-piperidylsulfamoyl)phenyl]thiazol-2-yl]acetamide], the IC50 [4] was < 100 nM.

In the case of COc1ccc(-c2sc(NCC3CCCCC3)nc2C)cc1S(=O)(=O)NC1CCCC(O)C1 (centres unmarked) [Compound S-199, 5-[2-(cyclohexylmethylamino)-4-methyl-thiazol-5-yl]-N-(3-hydroxycyclohexyl)-2-methoxy-benzenesulfonamide], the IC50 [4] is reported as < 100 nM.

COc1ccc(-c2sc(NC(C)(C)C)nc2C)cc1S(=O)(=O)NC1CCCC(O)C1 (centres unmarked) [Compound S-218, 5-[2-(tert-butylamino)-4-methyl-thiazol-5-yl]-N-(3-hydroxycyclohexyl)-2-methoxy-benzenesulfonamide] was tested, and the IC50 [4] was < 100 nM.

COc1ccc(-c2sc(NC(C)(C)C)nc2C)cc1S(=O)(=O)NC1CCCNC1 (centres unmarked) [Compound S-220, 5-[2-(tert-butylamino)-4-methyl-thiazol-5-yl]-2-methoxy-N-(3-piperidyl)benzenesulfonamide] was tested, and the IC50 [4] was < 100 nM.

With COc1ccc(-c2sc(NCC(C)C)nc2C)cc1S(=O)(=O)NC1CCCC(O)C1 (centres unmarked) [Compound S-223, N-(3-hydroxycyclohexyl)-5-[2-(isobutylamino)-4-methyl-thiazol-5-yl]-2-methoxy-benzenesulfonamide; 2,2,2-trifluoroacetic acid] the IC50 [4] was < 100 nM.

COc1ncc(-c2sc(NC(=O)CC3CCOCC3)nc2C)cc1S(=O)(=O)Nc1cccc(O)c1 [Compound S-259] showed an IC50 [3] of 1000 to 10000 nM.

COc1ncc(-c2sc(NC(=O)CC3CCOCC3)nc2C)cc1S(=O)(=O)Nc1ccc(F)cc1F [Compound S-260] was tested, and the EC50 [1] was 100 to 1000 nM, the EC50 [2] was 1000 to 10000 nM and the IC50 [3] was > 10000 nM.

COc1ncc(-c2sc(NC(=O)CC3CCOCC3)nc2C)cc1S(=O)(=O)N[C@H]1CC[C@@H](O)CC1 [Compound S-262] was tested, and the IC50 [3] was 1000 to 10000 nM.

With COc1ncc(-c2sc(NC(=O)CC3CCOCC3)nc2C)cc1S(=O)(=O)Nc1cccc(C(=O)O)c1 [Compound S-265] the IC50 [3] was > 10000 nM.
